Here are results for 43 compounds from the RepoRT retention time repository.

The data set is described as follows: Waters ACQUITY UPLC BEH C18, 50 × 2.1 mm, 1.7 µm, 30 °C, 0.3 mL/min, estimated dead time 0.37 min; A: water + 0.3% formic acid; B: acetonitrile; gradient (min/%B) 0.5/5 3.5/20 5.5/25 7/57 8/90. To be noted: stereoisomer not certain.
Regarding `CC(Cc1ccccc1)N(C)Cc1ccco1` (stereo not drawn), the LC retention time was 4.46 min.

`CNC(C)(C)Cc1ccccc1`: the LC retention time is 3.14 min.

On to `CC(Cc1ccccc1)[n+]1cc(N=C([O-])Nc2ccccc2)on1` (stereo not drawn), for which the LC retention time is 7.25 min. The same measure for `CCCCNc1cc(C(=O)O)cc(S(N)(=O)=O)c1Oc1ccccc1`: 7.49 min.

Consider `Cc1ccccc1CC(C)N` (stereo not drawn), for which the LC retention time was 3.25 min.

For `O=C(O)C(c1ccccc1)C1CCCCN1` (stereo not drawn), the LC retention time was 3.25 min. Regarding `COc1ccc2c3c1OC1C(O)C=CC4C(C2)N(C)CCC341` (stereo not drawn), the LC retention time is 2.15 min. As to `CC(C)NCC(O)COc1ccc(CC(N)=O)cc1` (stereo not drawn), the LC retention time is 1.62 min. On to `CNC(C)C(O)c1ccc(O)cc1` (stereo not drawn), for which the LC retention time was 0.65 min. The same measure for `CC1CC2C(C(O)CC3(C)C2CCC3(O)C(=O)CO)C2(C)C=CC(=O)C=C12` (stereo not drawn): 6.78 min. The same measure for `CNC(C)Cc1ccccc1OC` (stereo not drawn): 3.3 min; for `CCOC(=O)C1(c2ccccc2)CCN(C)CC1`: 4.43 min. With `N=C1NC(=O)C(c2ccccc2)O1` (stereo not drawn), the LC retention time was 2.7 min.

On to `Nc1nc(N)c2nc(-c3ccccc3)c(N)nc2n1`, for which the LC retention time was 3 min. Regarding `CNC(C)C(O)c1ccccc1` (stereo not drawn), the LC retention time was 2 min. Consider `CCNCC(O)c1cccc(O)c1` (stereo not drawn), for which the LC retention time is 0.92 min. For the compound `O=C(O)CS(=O)C(c1ccccc1)c1ccccc1` (stereo not drawn), the LC retention time is 6.69 min. In the case of `CN(C)C(=O)Oc1cc(OC(=O)N(C)C)cc(C(O)CNC(C)(C)C)c1` (stereo not drawn), the LC retention time was 4.59 min.

On to `CN1CCC23c4c5ccc(O)c4OC2C(=O)CCC3(O)C1C5` (stereo not drawn), for which the LC retention time is 1.21 min. As for `CC(C)(N)Cc1ccccc1`, the LC retention time is 2.91 min.

Regarding `CC(C)NC1CCn2c(=O)[nH]c3cccc(c32)C1O` (stereo not drawn), the LC retention time is 1.43 min. The same measure for `CC(C)(C)NCC(O)c1ccc(O)c(CO)c1` (stereo not drawn): 1.45 min. Under `OC(c1ccccc1)(c1ccccc1)C1CCCCN1` (stereo not drawn) stands 4.75 min; under `CC(Cc1ccccc1)NC(C#N)c1ccccc1` (stereo not drawn), 7.8 min; under `CC(N)Cc1ccccc1` (stereo not drawn), 2.37 min. As to `CC(C)NCC(O)COc1ccc(COCCOC(C)C)cc1` (stereo not drawn), the LC retention time was 5.03 min. `CC(C)(C#N)c1cc(Cn2cncn2)cc(C(C)(C)C#N)c1`: the LC retention time was 6.91 min. The same measure for `CC12CCC(=O)C=C1CCC1C2C(O)CC2(C)C1CCC2(O)C(=O)CO` (stereo not drawn): 6.23 min. For `CNC(C)CCC=C(C)C` (stereo not drawn), the LC retention time was 3.6 min. The same measure for `CC12C=CC(=O)C=C1CCC1C2C(O)CC2(C)C1CCC2(O)C(=O)CO` (stereo not drawn): 6.15 min.

For `COC12CCC3(CC1C(C)(O)C(C)(C)C)C1Cc4ccc(O)c5c4C3(CCN1CC1CC1)C2O5` (stereo not drawn), the LC retention time is 6.55 min. Under `CC(N)CCCC(C)(C)O` (stereo not drawn) stands 1.29 min. Take `O=C1CC2OCC=C3CN4CCC56c7ccccc7N1C5C2C3CC46` (stereo not drawn): the LC retention time is 3.01 min. For the compound `COC(=O)C1CC2=CC(=O)CCC2(C)C23OC2CC2(C)C(CCC24CCC(=O)O4)C13` (stereo not drawn), the LC retention time is 6.75 min. The same measure for `CC12Cc3c([nH][nH]c3=O)CC1CCC1C2CCC2(C)C1CCC2(C)O` (stereo not drawn): 6.7 min. On to `CCN(CC)C(=O)c1cccnc1`, for which the LC retention time is 2.02 min. The same measure for `CNC(C)Cc1ccc2c(c1)OCO2` (stereo not drawn): 2.73 min; for `CNC(C)CC1CCCCC1` (stereo not drawn): 4.4 min. The same measure for `CC(N)C(O)c1ccccc1` (stereo not drawn): 1.7 min; for `CC(C(O)c1ccccc1)N(C)C` (stereo not drawn): 2.2 min. Under `NC(=O)CS(=O)C(c1ccccc1)c1ccccc1` (stereo not drawn) stands 6.01 min; under `C1CCc2nnnn2CC1`, 2.4 min; under `CC1(C)OC2CC3C4CCC5=CC(=O)C=CC5(C)C4C(O)CC3(C)C2(C(=O)CO)O1` (stereo not drawn), 6.98 min.
